Experimental findings from patent US20140274981A1, “PHARMACEUTICAL COMPOSITION OF S-KETAMINE HYDROCHLORIDE” (JANSSEN PHARMACEUTICA NV, priority 2013, published 2014) are described below.

The subject of test [1] is E. coli. The test can be described thus: Full AET challenge test. The note with it: original spike 10^5-10^6 CFU/ml, after 28 days.
The test system of test [2] is C. albicans. Kind of test: Full AET challenge test. The note with it: original spike 10^5-10^6 CFU/ml, after 28 days.
The test system of test [3] is S. haemolyticus. Kind of test: Microbial challenge test (Example 1). The note with it: original spike 10^5-10^6 CFU/ml.
Test [4] has as its system S. aureus. The test can be described thus: Full AET challenge test. Conditions: original spike 10^5-10^6 CFU/ml, after 28 days.
In test [5] the test system is P. aeruginosa. The test can be described thus: Full AET challenge test. Conditions: original spike 10^5-10^6 CFU/ml, after 28 days.
For test [6], the system named is A. brasiliensis. Kind of test: Full AET challenge test. The note with it: original spike 10^5-10^6 CFU/ml, 28 days at room temperature.
For test [7], the system named is M. luteus. The test can be described thus: Full AET challenge test. The note with it: original spike 10^5-10^6 CFU/ml, after 28 days.

With `CN[C@]1(c2ccccc2Cl)CCCCC1=O.Cl` [S-ketamine hydrochloride, (S)-2-(2-chlorophenyl)-2-(methylamino)cyclohexanone hydrochloride], the “Effect on the original spike (in words)” value is on record as “strong antimicrobial properties” in test [1]; “strong antimicrobial properties” in test [2]; “strong antimicrobial properties” in test [3]; “strong antimicrobial properties” in test [4]; “strong antimicrobial properties” in test [5]; “some inhibitory activity” in test [6]. Besides, the “Effect on the original spike (in words)” value in test [7] was “strong antimicrobial properties”.
